For 30 molecules, IC50 results are on record in US9174980B2, “Heterocyclic compounds as inhibitors of leukotriene production” (Boehringer Ingelheim International GmbH, priority 2012, dated 2015).

For orientation: IC50 means the point on the concentration scale where inhibition reaches its midpoint.

The test system of test [1] is synthesis of LTB4 in human whole blood. The test can be described thus: Human whole blood assay (calcimycin-stimulated LTB4 synthesis). It is filed as cell-based. As to conditions: Homo sapiens; read-out: Human Whole Blood LTB4 Assay for FLAP (IC50 nM). The method in brief: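 Whole-blood cellular format, heparinized human donors: 15 min compound pretreatment, then 30 min calcimycin stimulation (20 μM final), both at 37° C. Low-speed centrifugation yields plasma, in which LTB4 is read by homogeneous time-resolved fluorescence immunoassay.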

Test [2] has as its target T1, recombinant human FLAP protein (Homo sapiens, UniProt P20292).
T1 construct: made in house; host or cells: Sf9 insect cells (membrane fraction, 100,000 x g pellet)
T1 sequence (P20292 1-161): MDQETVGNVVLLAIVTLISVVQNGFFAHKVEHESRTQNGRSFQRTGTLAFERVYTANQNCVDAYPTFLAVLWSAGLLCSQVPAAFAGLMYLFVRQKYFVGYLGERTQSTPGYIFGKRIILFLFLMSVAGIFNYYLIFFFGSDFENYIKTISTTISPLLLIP
The test is described as follows: FLAP binding assay (Scintillation Proximity Assay, displacement of [125I]L-691,831). Conditions: read-out: Human FLAP SPA Binding (IC50 nM). The method in brief: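 Membranes from sf9 cells expressing recombinant human FLAP (5 μg/well) on WGA SPA beads were incubated with compound and 0.08 nM [125I]L-691,831 in Tris pH 7.5 binding buffer, shaken 2 h. Displacement read by scintillation proximity; non-specific binding set with 10 μM unlabelled L-691,831.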
(In a scintillation proximity assay essentially only radioactivity close to the scintillant gives light.)

`Nc1ncc(-c2ccc(C3(c4c[nH]c5c(C(=O)N6CCS(=O)(=O)CC6)cccc45)CCC3)cc2)cn1` [Example 114]: the 50% inhibitory concentration (IC50) is 380 nM in test [1] and 2.3 nM in test [2].
The matching figures for `Cc1nccc2c(C3(c4ccc(-c5cnc(N)nc5)cc4)CCC3)c[nH]c12` [Example 152, 5-{4-[1-(7-methyl-1H-pyrrolo[2,3-c]pyridin-3-yl)cyclobutyl]phenyl}pyrimidin-2-amine]: 55 nM and 1.7 nM.
The matching figures for `CC(C)C(C)(c1ccc(-c2cnc(N)nc2)cc1)c1c[nH]c2c(C(=O)N3CCC(O)C3)cccc12` (stereo not drawn) [Example 98, (3-{2-[4-(2-aminopyrimidin-5-yl)phenyl]-3-methylbutan-2-yl}-1H-indol-7-yl)(3-hydroxypyrrolidin-1-yl)methanone]: 360 nM and 0.6 nM.
Turning to `CC(C)(O)Cn1cc(-c2coc([C@@](C)(c3ccc(-c4cnc(N)nc4)nc3)C3CC3)n2)cn1` [Example 210, 1-[4-(2-{(R)-1-[6-(2-Amino-pyrimidin-5-yl)-pyridin-3-yl]-1-cyclopropyl-ethyl}-oxazol-4-yl)-pyrazol-1-yl]-2-methyl-propan-2-ol], the IC50 in test [1] turned out to be 530 nM; in test [2], 180 nM.
For `CC(C)C(C)(c1ccc(-c2cnc(N)nc2)cc1)c1cc2ccc(F)cc2[nH]1` (stereo not drawn) [Example 61, 5-{4-[2-(6-fluoro-1H-indol-2-yl)-3-methylbutan-2-yl]phenyl}pyrimidin-2-amine] the same measures were 1200 nM and 9.3 nM.
In the case of `Nc1ncc(-c2ccc(C3(c4c[nH]c5cc(F)ccc45)CCC3)cc2)cn1` [Example 82, 5-{4-[1-(6-fluoro-1H-indol-3-yl)cyclobutyl]phenyl}pyrimidin-2-amine], the IC50 in test [1] came to 160 nM; in test [2] it was 0.94 nM.
For `COCC(C)(c1ccc(-c2cnc(N)nc2)cc1)c1cn(CC(=O)O)c2ncccc12` (stereo not drawn) [Example 55, (3-{2-[4-(2-aminopyrimidin-5-yl)phenyl]-1-methoxypropan-2-yl}-1H-pyrrolo[2,3-b]pyridin-1-yl)acetic acid] the same measures were greater than 5000 nM and 1100 nM.
As to `Nc1ncc(-c2ccc(C3(c4c[nH]c5ccccc45)CCC3)cc2)cn1` [Example 81, 5-{4-[1-(1H-indol-3-yl)cyclobutyl]phenyl}pyrimidin-2-amine], the results for the IC50 in test [1] and in test [2] were 370 nM and 5.1 nM, respectively.
On to `CN(C)C(=O)Cn1cc(-c2coc(C(C)(c3ccc(-c4cnc(N)nc4)cc3)C3CC3)n2)cn1` (stereo not drawn) [Example 194, 2-[4-(2-{1-[4-(2-aminopyrimidin-5-yl)phenyl]-1-cyclopropylethyl}-1,3-oxazol-4-yl)-1H-pyrazol-1-yl]-N-dimethylacetamide], for which the half-inhibitory concentration (IC50) in test [1] came out at 560 nM; in test [2], 40 nM.
`Nc1ncc(-c2ccc(C3(c4c(-c5ccc(F)cc5)[nH]c5ccccc45)CCC3)cc2)cn1` [Example 163, 5-(4-{1-[2-(4-fluorophenyl)-1H-indol-3-yl]cyclobutyl}phenyl)pyrimidin-2-amine]: the IC50 in test [1] came to 590 nM; in test [2] it was 5.7 nM.
For `CC(C)C(C)(c1ccc(-c2cnc(N)nc2)cc1)c1cn(CCN2CCN(C)CC2)c2ccccc12` (stereo not drawn) [Example 52, 5-[4-(3-methyl-2-{1-[2-(4-methylpiperazin-1-yl)ethyl]-1H-indol-3-yl}butan-2-yl)phenyl]pyrimidin-2-amine] the same measures were 2200 nM and 3.1 nM.
The matching figures for `CC(C)C(C)(c1ccc(-c2cnc(N)nc2)cc1)c1nc(-c2cccnc2)no1` (stereo not drawn) [Example 101, 5-(4-{3-methyl-2-[3-(pyridin-3-yl)-1,2,4-oxadiazol-5-yl]butan-2-yl}phenyl)pyrimidin-2-amine]: 1400 nM and 12 nM.
In the case of `Nc1ncc(-c2ccc(C3(c4c[nH]c5c(C(=O)N6CC[C@@H](O)C6)cccc45)CCC3)cc2)cn1` [Example 134, (3-{1-[4-(2-aminopyrimidin-5-yl)phenyl]cyclobutyl}-1H-indol-7-yl)[(3R)-3-hydroxypyrrolidin-1-yl]methanone], the 50% inhibitory concentration (IC50) in test [1] stood at 270 nM; in test [2] it was 1.8 nM.
For `Nc1ncc(-c2ccc(C3(c4nnc(-c5ccc(F)cc5)[nH]4)CCC3)cn2)cn1` [Example 143, 5-(5-{1-[5-(4-fluorophenyl)-4H-1,2,4-triazol-3-yl]cyclobutyl}pyridin-2-yl)pyrimidin-2-amine] the same measures were 1500 nM and 12 nM.
For `Cc1nc(CNC(=O)c2cccc3c(C4(c5ccc(-c6cnc(N)nc6)cc5)CCC4)c[nH]c23)no1` [Example 9, 3-{1-[4-(2-aminopyrimidin-5-yl)phenyl]cyclobutyl}-N-[(5-methyl-1,2,4-oxadiazol-3-yl)methyl]-1H-indole-7-carboxamide] the same measures were 27 nM and 2.2 nM.
For `CC(C)(O)Cn1cc(-c2cc(C(C)(c3ccc(-c4cnc(N)nc4)cc3)C3CC3)no2)cn1` (stereo not drawn) [Example 184, 1-[4-(3-{1-[4-(2-aminopyrimidin-5-yl)phenyl]-1-cyclopropylethyl}-1,2-oxazol-5-yl)-1H-pyrazol-1-yl]-2-methylpropan-2-ol] the same measures were 97 nM and 8.4 nM.
Regarding `CN(C)CCn1cc(-c2cnc(C3(c4ccc(-c5cnc(N)nc5)cc4)CCC3)s2)cn1` [Example 181, 5-{4-[1-(5-{1-[2-(dimethylamino)ethyl]-1H-pyrazol-4-yl}-1,3-thiazol-2-yl)cyclobutyl]phenyl}pyrimidin-2-amine], the IC50 in test [1] worked out at 110 nM; in test [2], 6.1 nM.
As to `COc1ncccc1-c1nnc(C2(c3ccc(-c4cnc(N)nc4)cc3)CCC2)[nH]1` [Example 153, 5-(4-{1-[5-(2-methoxypyridin-3-yl)-4H-1,2,4-triazol-3-yl]cyclobutyl}phenyl)pyrimidin-2-amine], the results for the IC50 in test [1] and in test [2] were 1100 nM and 3.1 nM, respectively.
For `CC(C)(O)Cn1cc(-c2cnc(C(C)(c3ccc(-c4cnc(N)nc4)nc3)C3CC3)s2)cn1` (stereo not drawn) [Example 212, 1-[4-(2-{1-[6-(2-Amino-pyrimidin-5-yl)-pyridin-3-yl]-1-cyclopropyl-ethyl}-thiazol-5-yl)-pyrazol-1-yl]-2-methyl-propan-2-ol] the same measures were 410 nM and 130 nM.
For `Nc1ncc(-c2ccc(C3(c4c[nH]c5c(F)cccc45)CCC3)cc2)cn1` [Example 87, 5-{4-[1-(7-fluoro-1H-indol-3-yl)cyclobutyl]phenyl}pyrimidin-2-amine] the same measures were 400 nM and 1.6 nM.
With `Nc1ncc(-c2ccc(C3(c4nnc(-c5ccccc5)[nH]4)CCOCC3)cc2)cn1` [Example 69, 5-{4-[4-(5-phenyl-4H-1,2,4-triazol-3-yl)tetrahydro-2H-pyran-4-yl]phenyl}pyrimidin-2-amine], the half-maximal inhibitory concentration (IC50) worked out at 3100 nM in test [1] and 120 nM in test [2].
As to `Nc1ncc(-c2ccc(C3(c4nc5ccccc5s4)CCC3)cn2)cn1` [Example 140, 5-{5-[1-(1,3-benzothiazol-2-yl)cyclobutyl]pyridin-2-yl}pyrimidin-2-amine], the half-maximal inhibitory concentration (IC50) is greater than 5000 nM in test [1] and 10 nM in test [2].
For `Cn1cc(-c2coc(C3(c4ccc(-c5cnc(N)nc5)cc4)CCC3)n2)cn1` [Example 164, 5-(4-{1-[4-(1-methyl-1H-pyrazol-4-yl)-1,3-oxazol-2-yl]cyclobutyl}phenyl)pyrimidin-2-amine] the same measures were 93 nM and 3.7 nM.
For `CC(C)C(C)(c1ccc(-c2cnc(N)nc2)cc1)c1c[nH]c2c(C(=O)O)cccc12` (stereo not drawn) [Example 84, 3-[1-[4-(2-aminopyrimidin-5-yl)phenyl]-1,2-dimethyl-propyl]-1H-indole-7-carboxylic acid] the same measures were 3000 nM and 0.7 nM.
For `Nc1ncc(-c2ccc(C3(c4c[nH]c5ncccc45)CCC3)cc2)cn1` [Example 103, 5-{4-[1-(1H-pyrrolo[2,3-b]pyridin-3-yl)cyclobutyl]phenyl}pyrimidin-2-amine] the same measures were 160 nM and 2.5 nM.
Turning to `CC(C)C(C)(c1ccc(-c2cnc(N)nc2)cc1)c1c[nH]c2cc(S(C)(=O)=O)ccc12` (stereo not drawn) [Example 85, 5-(4-{3-methyl-2-[6-(methylsulfonyl)-1H-indol-3-yl]butan-2-yl}phenyl)pyrimidin-2-amine], the figures for the IC50 in test [1] and in test [2] were 300 nM and 0.97 nM, respectively.
The matching figures for `Nc1ncc(-c2ccc(C3(c4c[nH]c5c(=O)[nH]ccc45)CCC3)cc2)cn1` [Example 155]: 370 nM and 2.5 nM.
For `Cn1cc(-c2coc([C@](C)(c3ccc(-c4cnc(N)nc4)cc3)C3CC3)n2)cn1` [Example 186, 5-[4-[(1S)-1-cyclopropyl-1-[4-(1-methylpyrazol-4-yl)oxazol-2-yl]ethyl]phenyl]pyrimidin-2-amine] the same measures were 2000 nM and 87 nM.
Regarding `CC(C)C(C)(c1ccc(OCc2ccccn2)cc1)c1cn(C)c2cc(C(=O)Nc3cccnn3)ccc12` (stereo not drawn) [Example 37, 3-[1,2-dimethyl-1-[4-(2-pyridylmethoxy)phenyl]propyl]-1-methyl-N-pyridazin-3-yl-indole-6-carboxamide], the values for the concentration for half-maximal inhibition (IC50) in test [1] and in test [2] were 150 nM and 1.4 nM, respectively.
The matching figures for `CC(C)C(C)(c1ccc(-c2cnc(N)nc2)cc1)c1c[nH]c2cccc(F)c12` (stereo not drawn) [Example 58, 5-{4-[2-(4-fluoro-1H-indol-3-yl)-3-methylbutan-2-yl]phenyl}pyrimidin-2-amine]: 69 nM and 1.1 nM.
